Patent publication US20240417372A1, “ESTERS OF A RETINOID AND BAKUCHIOL AND PREPARATIONS THEREOF” (Conagen Inc., priority 2021, published 2024)

How the values were obtained:
Type in all cases: cell-based
Conditions in all cases: for Fold Activation: RLU vs DMSO, 23 hours
RAR alpha = target: T1, RAR alpha (Homo sapiens, UniProt P10276); assay: RAR alpha Gal4-hybrid luciferase reporter cell agonist assay
T1 sequence (P10276 183-417 limits assumed): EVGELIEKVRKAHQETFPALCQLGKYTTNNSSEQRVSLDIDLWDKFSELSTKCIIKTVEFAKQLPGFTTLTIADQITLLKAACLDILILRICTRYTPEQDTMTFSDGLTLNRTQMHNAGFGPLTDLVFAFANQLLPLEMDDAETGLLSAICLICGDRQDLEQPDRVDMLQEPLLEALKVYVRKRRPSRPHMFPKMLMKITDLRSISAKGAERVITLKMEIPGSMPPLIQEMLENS
Procedure: (§1) Reporter Cells (Indigo Biosciences, catalog #IB02201, IB02101, IB00821) used in the assays express a receptor hybrid in which the native N-terminal DNA binding domain (DBD) has been replaced with that of the yeast Gal4 DBD. The reporter gene, firefly luciferase, is functionally linked to the Gal4 upstream activation sequence (UAS). Receptor assays were performed as described in Steps 1 to 3 below.
(§2) Step 1: A suspension of Reporter Cells was prepared in Cell Recovery Medium (CRM: containing charcoal-stripped FBS) and 100 μl of the Reporter Cell suspension was dispensed into wells of a white 96-well assay plate.
(§3) Step 2: Test and reference compound master stocks were prepared as solutions at 1,000× concentration’ in DMSO relative to the final treatment concentration. This intermediate stock was subsequently diluted directly into INDIGO Biosciences's Compound Screening Medium (CSM; containing charcoal-stripped FBS) to generate ‘2×-concentration’ treatment media. 100 μL of each prepared treatment medium was dispensed into duplicate assay wells pre-dispensed with a 100 μL suspension of Reporter Cells, thereby achieving the desired final treatment concentrations. The concentration of residual DMSO in all assay wells was 0.1% for the test and reference compounds. Assay plates were incubated at 37° C., 5% CO2 and ˜70% humidity for 23 hours. DMSO control was used to determine background activity. Retinoic acid was used with its EC100 concentration to show 100% activity of each receptor. Retinol was used as positive control.
(§4) Step 3: Following the incubation period, treatment media were discarded and 100 μL/well of Luciferase Detection Reagent was added per well to determine receptor activity in terms of relative luminescence units (RLUs). Data processing: fold activation: [Ave RLU Test Cmpd/Ave RLU DMSO].

RAR beta = target: T2, RAR beta (Homo sapiens, UniProt P10826); assay: RAR beta Gal4-hybrid luciferase reporter cell agonist assay
T2 sequence (P10826 183-417 limits assumed): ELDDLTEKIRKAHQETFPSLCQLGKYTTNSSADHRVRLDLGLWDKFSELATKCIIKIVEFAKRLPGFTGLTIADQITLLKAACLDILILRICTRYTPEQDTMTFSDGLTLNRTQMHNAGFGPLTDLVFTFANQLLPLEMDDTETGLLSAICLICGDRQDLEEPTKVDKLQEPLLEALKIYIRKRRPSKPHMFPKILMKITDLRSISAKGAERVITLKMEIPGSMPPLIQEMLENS
Procedure: as §1, §2, §3, §4

RAR gamma = RAR gamma Gal4-hybrid luciferase reporter cell agonist assay
Procedure: as §1, §2, §3, §4

| Fold Activation (RAR alpha; RAR alpha, 0.1 μM) | Fold Activation (RAR alpha; RAR alpha, 1 μM) | Fold Activation (RAR beta; RAR beta, 0.1 μM) | Fold Activation (RAR beta; RAR beta, 1 μM) | activity compared with retinol (in words) (RAR alpha; RAR alpha, at 0.1 μm and 0.01 μm) | agonist activity towards RAR alpha (in words) (RAR alpha; summary of Table 1) | activity compared with retinol (in words) (RAR beta; RAR beta, at 0.1 μm and 0.01 μm) | agonist activity towards RAR beta (in words) (RAR beta; summary of Table 1) | Compound | Fold Activation (RAR gamma; RAR gamma, 0.1 μM) | Fold Activation (RAR gamma; RAR gamma, 1 μM) | Fold Activation (RAR gamma; RAR gamma, 0.1 μM (EC100 concentration of retinoic acid)) | activity compared with retinol (in words) (RAR gamma; RAR gamma, at 0.1 μm and 0.01 μm) | agonist activity towards RAR gamma (in words) (RAR gamma; summary of Table 1) |
| --- | --- | --- | --- | --- | --- | --- | --- | --- | --- | --- | --- | --- | --- |
| 6.35 | 518 | 4.91 | 127 |  |  |  |  | CC1=C(/C=C/C(C)=C/C=C/C(C)=C/CO)C(C)(C)CCC1 [Retinol, reference compound] | 18.5 | 368 |  |  |  |
|  |  |  |  |  |  |  |  | CC1=C(/C=C/C(C)=C/C=C/C(C)=C/C(=O)O)C(C)(C)CCC1 [Retinoic acid, reference compound] |  |  | 706 |  |  |
| 26.0 | 979 | 12.6 | 169 | more active than retinol | exhibited agonist activity | more active than retinol | exhibited agonist activity | C=C[C@](C)(/C=C/c1ccc(OC(=O)/C=C(C)/C=C/C=C(C)/C=C/C2=C(C)CCCC2(C)C)cc1)CCC=C(C)C [Bakuchoyl retinoate of Formula I] | 41.0 | 541 |  | more active than retinol | exhibited agonist activity |
